Values of other authors as cited in patent publication US12225905B2, “Antimicrobial superabsorbent compositions” (Matoke Holdings Limited, priority 2017, dated 2025).

Conditions: 20° C. and 1 atm

O=C(CO)[C@@H](O)[C@H](O)[C@H](O)CO [Fructose]
solubility: about 375 g/100 g water
